ChEMBL document CHEMBL3272271, “Folate antagonists. 13. 2,4-Diamino-6-](alpha,alpha,alpha-trifluoro-m-tolyl)thio]quinazoline and related 2,4-diamino-6-[(phenyl- and naphthyl)thio]quinazolines, a unique class of antimetabolites with extraordinary antimalarial and antibacterial effects” (J Med Chem, 1978)
Values after ≈ are worked out from the molar mass of the structure shown. Active and inactive are the calls of the source. The calls are words filed in the database; no cut-off is given here.

Experiments:
Plasmodium berghei [1] = assay: Antimalarial activity against Plasmodium berghei infected in mouse assessed as increase in mean survival days of host at 10 mg/kg, sc administered 72 hrs after infection relative to control; type: functional; details: route subcutaneous
Plasmodium berghei [2] = assay: Antimalarial activity against trophozoite-induced Plasmodium berghei infected in mouse assessed as daily dose required to suppression of 90% parasite infection administered with diet for 6 days; type: functional
Plasmodium berghei [3] = assay: Antimalarial activity against Plasmodium berghei infected in mouse assessed as increase in mean survival days of host at 20 mg/kg, sc administered 72 hrs after infection relative to control; type: functional; details: route subcutaneous
Plasmodium berghei [4] = assay: Antimalarial activity against Plasmodium berghei infected in mouse assessed as increase in mean survival days of host at 40 mg/kg, sc administered 72 hrs after infection relative to control; type: functional; details: route subcutaneous
Plasmodium gallinaceum [5] = assay: Antimalarial activity against sporozoite-induced Plasmodium gallinaceum infected in white leghorn chicken assessed as increase in mean survival days of host at 120 mg/kg, sc administered 72 hrs after infection relative to control; type: functional; details: route subcutaneous
Plasmodium berghei [6] = assay: Antimalarial activity against Plasmodium berghei infected in mouse assessed as increase in mean survival days of host at 160 mg/kg, sc administered 72 hrs after infection relative to control; type: functional; details: route subcutaneous
Gallus gallus = assay: Toxicity in sporozoite-induced Plasmodium gallinaceum infected white leghorn chicken assessed as mortality at 480 mg/kg, sc administered 72 hrs after infection measured up to 6 days; type: organism-based; design: dose 480 mg/kg, route subcutaneous; details: in vivo
Plasmodium berghei [7] = assay: Antimalarial activity against Plasmodium berghei infected in mouse assessed as increase in mean survival days of host at 80 mg/kg, sc administered 72 hrs after infection relative to control; type: functional; details: route subcutaneous
Plasmodium gallinaceum [8] = assay: Antimalarial activity against sporozoite-induced Plasmodium gallinaceum infected in white leghorn chicken assessed as increase in mean survival days of host at 60 mg/kg, sc administered 72 hrs after infection relative to control; type: functional; details: route subcutaneous
Plasmodium gallinaceum [9] = assay: Antimalarial activity against sporozoite-induced Plasmodium gallinaceum infected in white leghorn chicken assessed as increase in mean survival days of host at 7.5 mg/kg, sc administered 72 hrs after infection relative to control; type: functional; details: route subcutaneous
Plasmodium gallinaceum [10] = assay: Antimalarial activity against sporozoite-induced Plasmodium gallinaceum infected in white leghorn chicken assessed as increase in mean survival days of host at 240 mg/kg, sc administered 72 hrs after infection relative to control; type: functional; details: route subcutaneous
Plasmodium gallinaceum [11] = assay: Antimalarial activity against sporozoite-induced Plasmodium gallinaceum infected in white leghorn chicken assessed as increase in mean survival days of host at 30 mg/kg, sc administered 72 hrs after infection relative to control; type: functional; details: route subcutaneous
Plasmodium berghei [12] = assay: Ratio of quinine hydrochloride SD90 to compound SD90 for trophozoite-induced Plasmodium berghei infected in mouse assessed as daily dose required to suppression of 90% parasite infection administered with diet for 6 days; type: functional
Plasmodium gallinaceum [13] = assay: Antimalarial activity against sporozoite-induced Plasmodium gallinaceum infected in white leghorn chicken assessed as increase in mean survival days of host at 15 mg/kg, sc administered 72 hrs after infection relative to control; type: functional; details: route subcutaneous
Plasmodium berghei [14] = assay: Antimalarial activity against cycloguanil-resistant Plasmodium berghei assessed as drug resistance; type: functional, organism-based
Enterococcus faecalis = assay: Antibacterial activity against Streptococcus faecalis MGH-2 by gradient plate test; type: functional
Plasmodium berghei [15] = assay: Antimalarial activity against Plasmodium berghei infected in mouse assessed as increase in mean survival days of host at 2.5 mg/kg, sc administered 72 hrs after infection relative to control; type: functional; details: route subcutaneous
Plasmodium berghei [16] = assay: Antimalarial activity against Plasmodium berghei infected in mouse assessed as disease cure from parasite infection at 40 mg/kg, sc administered 72 hrs after infection; type: functional, organism-based; design: dose 40 mg/kg
Plasmodium falciparum [17] = assay: Antimalarial activity against pyrimethamine-sensitive Plasmodium falciparum Vietnam Oak Knoll infected in Aotus trivirgatus owl monkey model assessed as cure from parasite infection at 0.098 to 1.56 mg/kg, po qd for 7 days relative to control; type: functional; details: dose mg/kg 0.098-1.56
Plasmodium falciparum [18] = assay: Antimalarial activity against chloroquine-susceptible, pyrimethamine-resistant Plasmodium falciparum Malayan Camp infected in Aotus trivirgatus owl monkey model assessed as cure from parasite infection at 0.39 to 5 mg/kg, po qd for 7 days relative to control; type: functional; details: dose mg/kg 0.39-5
Plasmodium gallinaceum [19] = assay: Antimalarial activity against trophozoite-induced Plasmodium gallinaceum infected in white leghorn chicken assessed as increase in mean survival days of host at 80 mg/kg, sc administered 72 hrs after infection relative to control; type: functional; details: route subcutaneous
Escherichia coli = assay: Antibacterial activity against Escherichia coli Vogel by gradient plate test; type: functional
Staphylococcus aureus [20] = assay: Antibacterial activity against Staphylococcus aureus UC-96 by gradient plate test; type: functional
Plasmodium gallinaceum [21] = assay: Antimalarial activity against trophozoite-induced Plasmodium gallinaceum infected in white leghorn chicken assessed as disease cure from parasite infection at 160 mg/kg, sc administered 72 hrs after infection; type: functional, organism-based; design: dose 160 mg/kg
Plasmodium berghei [22] = assay: Antimalarial activity against Plasmodium berghei infected in mouse assessed as disease cure from parasite infection at 80 mg/kg, sc administered 72 hrs after infection; type: functional, organism-based; design: dose 80 mg/kg
Plasmodium gallinaceum [23] = assay: Antimalarial activity against trophozoite-induced Plasmodium gallinaceum infected in white leghorn chicken assessed as disease cure from parasite infection at 320 mg/kg, sc administered 72 hrs after infection; type: functional, organism-based; design: dose 320 mg/kg
Plasmodium berghei [24] = assay: Antimalarial activity against Plasmodium berghei infected in mouse assessed as increase in mean survival days of host at 1.25 mg/kg, sc administered 72 hrs after infection relative to control; type: functional; details: route subcutaneous
Plasmodium gallinaceum [25] = assay: Antimalarial activity against sporozoite-induced Plasmodium gallinaceum infected in white leghorn chicken assessed as increase in mean survival days of host at 320 mg/kg, sc administered 72 hrs after infection relative to control; type: functional; details: route subcutaneous
Plasmodium berghei [26] = assay: Antimalarial activity against Plasmodium berghei infected in mouse assessed as disease cure from parasite infection at 640 mg/kg, sc administered 72 hrs after infection; type: functional, organism-based; design: dose 640 mg/kg
Plasmodium falciparum [27] = assay: Antimalarial activity against chloroquine-susceptible, pyrimethamine-resistant Plasmodium falciparum Malayan Camp infected in Aotus trivirgatus owl monkey model assessed as cure from parasite infection at >2.5 mg/kg, po qd for 7 days relative to control; type: functional
Plasmodium gallinaceum [28] = assay: Antimalarial activity against sporozoite-induced Plasmodium gallinaceum infected in white leghorn chicken assessed as increase in mean survival days of host at 80 mg/kg, sc administered 72 hrs after infection relative to control; type: functional; details: route subcutaneous
Plasmodium berghei [29] = assay: Antimalarial activity against Plasmodium berghei infected in mouse assessed as disease cure from parasite infection at 320 mg/kg, sc administered 72 hrs after infection; type: functional, organism-based; design: dose 320 mg/kg
Plasmodium gallinaceum [30] = assay: Antimalarial activity against sporozoite-induced Plasmodium gallinaceum infected in white leghorn chicken assessed as disease cure from parasite infection at 320 mg/kg, sc administered 72 hrs after infection; type: functional, organism-based; design: dose 320 mg/kg
Plasmodium berghei [31] = assay: Antimalarial activity against Plasmodium berghei infected in mouse assessed as increase in mean survival days of host at 5 mg/kg, sc administered 72 hrs after infection relative to control; type: functional; details: route subcutaneous
Plasmodium berghei [32] = assay: Antimalarial activity against Plasmodium berghei infected in mouse assessed as disease cure from parasite infection at 160 mg/kg, sc administered 72 hrs after infection; type: functional, organism-based; design: dose 160 mg/kg
Plasmodium gallinaceum [33] = assay: Antimalarial activity against sporozoite-induced Plasmodium gallinaceum infected in white leghorn chicken assessed as disease cure from parasite infection at 80 mg/kg, sc administered 72 hrs after infection; type: functional, organism-based; design: dose 80 mg/kg
Plasmodium gallinaceum [34] = assay: Antimalarial activity against sporozoite-induced Plasmodium gallinaceum infected in white leghorn chicken assessed as disease cure from parasite infection at 160 mg/kg, sc administered 72 hrs after infection; type: functional, organism-based; design: dose 160 mg/kg
Pseudomonas aeruginosa = assay: Antibacterial activity against Pseudomonas aeruginosa 28 by gradient plate test; type: functional
Plasmodium gallinaceum [35] = assay: Antimalarial activity against trophozoite-induced Plasmodium gallinaceum infected in white leghorn chicken assessed as increase in mean survival days of host at 160 mg/kg, sc administered 72 hrs after infection relative to control; type: functional; details: route subcutaneous
Staphylococcus aureus [36] = assay: Antibacterial activity against drug-resistant Staphylococcus aureus S18713 by gradient plate test; type: functional
Shigella sonnei = assay: Antibacterial activity against Shigella sonnei C-10 by gradient plate test; type: functional
Plasmodium falciparum [37] = assay: Antimalarial activity against pyrimethamine-sensitive Plasmodium falciparum Vietnam Oak Knoll infected in Aotus trivirgatus owl monkey model assessed as cure from parasite infection at 0.6 mg/kg, po qd for 7 days relative to control; type: functional
Plasmodium berghei [38] = assay: Antimalarial activity against chloroquine-resistant Plasmodium berghei assessed as drug resistance; type: functional, organism-based

With `CC(=O)O.Nc1nc(N)c2cc(NCc3ccc(Cl)c(Cl)c3)ccc2n1` as the compound, how does the MST (Plasmodium berghei [1]) read?
Its MST is 0.7 days.

And the SD90 (Plasmodium berghei [2])?
The SD90 was 9.5 mg/kg/day.

What about the MST (Plasmodium berghei [3]) of the same compound?
Its MST is 2.5 days.

What about the MST (Plasmodium berghei [4]) of the same compound?
The MST was 7.1 days.

What about the MST (Plasmodium gallinaceum [5]) of the same compound?
Its MST is 0 days.

And the MST (Plasmodium berghei [6])?
The MST was 9.9 days.

And the Activity (Gallus gallus)?
The Activity was “Toxic”.

What about the MST (Plasmodium berghei [7]) of the same compound?
Its MST is 12.9 days.

What about the MST (Plasmodium gallinaceum [8]) of the same compound?
The MST was 0 days.

And the MST (Plasmodium gallinaceum [9])?
Its MST is 2.3 days.

And the MST (Plasmodium gallinaceum [10])?
The MST was 0 days.

And the MST (Plasmodium gallinaceum [11])?
Its MST is 0 days.

What about the Ratio (Plasmodium berghei [12]) of the same compound?
The Ratio was 7.9.

And the MST (Plasmodium gallinaceum [13])?
The MST was 3.1 days.

Which MST (Plasmodium berghei [1]) does the source give for `Nc1nc(N)c2cc(Sc3ccc(Cl)cc3)ccc2n1` here?
Its MST is 9.2 days.

And the Activity (Plasmodium berghei [14])?
Its Activity is “Active”.

And the MIC (Enterococcus faecalis)?
Its MIC is less than 0.25 µg/mL.

And the MST (Plasmodium berghei [15])?
The MST was 2.5 days.

And the Activity (Plasmodium berghei [16])?
The Activity was “Active”.

And the Activity (Plasmodium falciparum [17])?
Its Activity is greater than 50%.

What about the Activity (Plasmodium falciparum [18]) of the same compound?
The Activity was greater than 50%.

And the MST (Plasmodium gallinaceum [19])?
Its MST is 16.7 days.

And the MIC (Escherichia coli)?
Its MIC is 1 µg/mL (≈ 3.3 µM).

And the MIC (Staphylococcus aureus [20])?
The MIC was less than 0.25 µg/mL.

And the SD90 (Plasmodium berghei [2])?
Its SD90 is 0.22 mg/kg/day.

And the Activity (Plasmodium gallinaceum [21])?
The Activity was “Active”.

What about the MST (Plasmodium berghei [3]) of the same compound?
The MST was 9.2 days.

What about the MST (Plasmodium berghei [4]) of the same compound?
Its MST is 13.1 days.

What about the Activity (Plasmodium berghei [22]) of the same compound?
The Activity was “Active”.

What about the Activity (Plasmodium gallinaceum [23]) of the same compound?
Its Activity is “Active”.

What about the MST (Plasmodium berghei [24]) of the same compound?
Its MST is 1.7 days.

What about the MST (Plasmodium gallinaceum [25]) of the same compound?
The MST was 1.9 days.

And the Activity (Plasmodium berghei [26])?
The Activity was “Active”.

And the Activity (Plasmodium falciparum [27])?
The Activity was greater than 50%.

And the MST (Plasmodium berghei [7])?
The MST was 25.8 days.

What about the MST (Plasmodium gallinaceum [28]) of the same compound?
The MST was 17.9 days.

What about the Activity (Plasmodium berghei [29]) of the same compound?
The Activity was “Active”.

And the Activity (Plasmodium gallinaceum [30])?
The Activity was “Active”.

And the MST (Plasmodium berghei [31])?
The MST was 6 days.

And the Activity (Plasmodium berghei [32])?
Its Activity is “Active”.

What about the Activity (Plasmodium gallinaceum [33]) of the same compound?
Its Activity is “Active”.

What about the Activity (Plasmodium gallinaceum [34]) of the same compound?
Its Activity is “Active”.

What about the Ratio (Plasmodium berghei [12]) of the same compound?
Its Ratio is 340.

What about the MIC (Pseudomonas aeruginosa) of the same compound?
The MIC was greater than 25 µg/mL.

What about the MST (Plasmodium gallinaceum [35]) of the same compound?
The MST was 22.2 days.

And the MIC (Staphylococcus aureus [36])?
The MIC was less than 0.25 µg/mL.

And the MIC (Shigella sonnei)?
The MIC was 5 µg/mL (≈ 16.5 µM).

What about the Activity (Plasmodium falciparum [37]) of the same compound?
Its Activity is greater than 50%.

And the Activity (Plasmodium berghei [38])?
The Activity was “inactive”.
